Laboratory results: US20190233906A1, “MUTANT STRAINS OF STAPHYLOCOCCUS AUREUS WITH MULTIPLE INACTIVATED TCS SYSTEMS” (priority 2015, published 2019)
Marks after values point to notes of the source that are not given here.

Assays:
[1] = tested on: ArlR response regulator of the arlRS two-component system of S. aureus MW2
[2] = tested on: ArlR D52A (non-phosphorylatable ArlR allele)
S. aureus 8325 = type: cell-based, Staphylococcus aureus; details: strain 8325
Experimental: (§1) Antibiotic sensitivity tests were performed at the University Clinic of Navarra. Antibiotics routinely used in clinic for treatment of S. aureus infections were tested by VITEK 2 system. • Growth Kinetics Analysis

S. aureus MW2 = type: cell-based, Staphylococcus aureus; details: strain MW2
Experimental: as §1

S. aureus MW2 ΔXV = assay: Antimicrobial susceptibility test (VITEK 2 system); type: cell-based, Staphylococcus aureus; details: strain MW2 ΔXV; as to Antimicrobial susceptibility (R/S): key: R: resistant; S: susceptible
Experimental: as §1

S. aureus 8325 ΔXV = assay: Antimicrobial susceptibility test (VITEK 2 system); type: cell-based, Staphylococcus aureus; details: for Antimicrobial susceptibility (R/S): strain 8325 ΔXV; as to Antimicrobial susceptibility (R/S): key: R: resistant; S: susceptible
Experimental: as §1

arlR-dependent protein A = assay: Protein A expression by Western blotting on stimulation of GraS; type: cell-based, Staphylococcus aureus; details: 50 μg of colistin
Experimental: Overnight cultures of the strains were diluted in TSB-gluc to an OD650nm=0.1 and 50 μl of the diluted cultures were mixed with 1950 μl of chemically defined medium HHWm (Hussain-Hastings-White modified medium) (Toledo-Arana et al., 2005) to inoculate sterile 24-well polystyrene microtitre plates (Costar). Plates were incubated at 37° C. for 24 hours, trying to mimic biofilm forming conditions. […] of bacterial cultures were centrifuged and pellets were resuspended in 60 μl PBS. Then, 2 μl of Lysostaphin 1 mg/ml (Sigma) and 3 μl of DNase I 1 mg/ml (Sigma) were added. After 2 h of incubation at 37° C. cell lysates were centrifuged and supernatants were collected. Protein concentration was determined with the Bio-Rad protein assay (Bio-Rad). Samples were adjusted to 3-5 μg of total protein and one volume of Laemmli buffer was added. Total protein extracts were denatured by boiling at 100° C. for 5 min. Proteins were separated on 10% SDS-polyacrylamide gels and stained with 0.25% Coomassie brilliant blue R250 (Sigma) as loading controls. For Western blotting, proteins were transferred onto Hybond-ECL nitrocellulose membranes (Amersham Biosciences) by semi-dry electroblotting. […] Protein A was detected with the SuperSignal West Pico Chemiluminescent Substrate (Thermo Scientific). • Construction of the Bap-Snap-ClfA Quimeric Protein and Expression in S. aureus ΔXVI

Compound | Antimicrobial susceptibility (R/S) (S. aureus 8325) | Antimicrobial susceptibility (R/S) (S. aureus MW2) | Antimicrobial susceptibility (R/S) (S. aureus MW2 ΔXV) | Antimicrobial susceptibility (R/S) (S. aureus 8325 ΔXV) | other results
ArlS H242A (ArlS allele that keeps phosphatase activity but cannot phosphorylate ArlR) | – | – | – | – | Protein A expression by Western blotting in arlRS mutant [1]: The resulting strain showed a level of expression of protein A similar to that of the strain complemented with ArlR alone
ArlS histidine kinase of the arlRS two-component system of S. aureus MW2 | – | – | – | – | Protein A expression by Western blotting [1]: They first confirmed that phosphorylation of ArlR by ArlS was necessary to induce protein A expression; Protein A expression by Western blotting in ΔXV strain complemented with arlR plus one HK [1]: In addition to ArlS itself, GraS is able to restore protein A expression in ΔXV strain
GraS histidine kinase of the graXRS two-component system of S. aureus MW2 | – | – | – | – | Protein A expression by Western blotting in ΔXV strain [2]: substitution of ArlR wild type by the non-phosphorylatable ArlRD52A allele suppresses the cross-talk; Protein A expression by Western blotting with 50 µg/ml colistin [2]: activation of protein A expression was absent when the ArlR phosphate accepting aspartate was mutated; Protein A expression by Western blotting in ΔXV strain complemented with arlR plus one HK [1]: In addition to ArlS itself, GraS is able to restore protein A expression in ΔXV strain
CC[C@H]1OC(=O)[C@H](C)[C@@H](O[C@H]2C[C@@](C)(OC)[C@@H](O)[C@H](C)O2)[C@H](C)[C@@H](O[C@@H]2O[C@H](C)C[C@H](N(C)C)[C@H]2O)[C@](C)(OC)C[C@@H](C)C(=O)[C@H](C)[C@@H](O)[C@]1(C)O [Clarithromycin] | S | S | S | S | –
histidine kinase of the srrAB two-component system of S. aureus MW2 (SrrB by Table 1; printed 'SrrA' in the sentence) | – | – | – | – | Protein A expression in ΔXV strain complemented with arlR plus one HK [1]: mainly GraS and to a lower level SrrA were able to activate ArlR
Quinuspristin/Dalfopristin | S | S | S | S | –
O=C(N[C@H](CO)[C@H](O)c1ccc([N+](=O)[O-])cc1)C(Cl)Cl [Chloramphenicol] | S | S | S | S | –
colistin | – | – | – | – | Expression of protein A (arlR-dependent protein A; arlRS graSR double mutant): but not in arlRS graSR double mutant; Expression of protein A (arlR-dependent protein A; wild type and single arlRS mutant): activation of the expression of protein A was observed
C[C@H]1COc2c(N3CCN(C)CC3)c(F)cc3c(=O)c(C(=O)O)cn1c23 [Levofloxacin] | S | S | S | S | MIC, Minimal inhibitory concentration (S. aureus MW2): (≤0.25)^a; MIC, Minimal inhibitory concentration (S. aureus MW2 ΔXV): (≤0.12)^a
CC1(C)S[C@@H]2[C@H](NC(=O)[C@H](N)c3ccccc3)C(=O)N2[C@H]1C(=O)O [Ampicillin] | R | R | R | S | Susceptibility of 8325 ΔXV mutant compared with parental strain (S. aureus 8325 ΔXV; 8325 ΔXV vs 8325): higher susceptibility
